Data published in publication PMC3573960 (Molecular Neurodegeneration, 2012).

Columns and labels:
AD patients = tested on: AD patients; parameters: method as in PMID 18695053, PMID 21222550, PMID 22323718; conditions: cited from earlier work
γ-secretase = experiment: APP CTF accumulation in H4-APP751 cell lysates (Western blot); format: cell-based, human; conditions: H4-APP751 cells, 16 h
Excerpt: Cells were lysed in situ and the resulting lysate cleared of nuclei by centrifugation, as described elsewhere. Samples were fractionated by SDS-PAGE on a 12% NuPage gel (Invitrogen), transferred to a nitrocellulose membrane, and immunoblotted with an anti-APP-CTF antibody (Sigma-Aldrich).

γ-secretase (EphA4) = experiment: EphA4 CTF accumulation in rat primary neocortical cultures (Western blot); conditions: 24 h, as low as 100 nM
Description: Protein concentration of the lysate was determined by the BCA method, and 30 μg of total protein were loaded on a 10% Bis-Tris gel (Invitrogen). EphA4 CTF was visualized using an anti-EphA4-CTF antibody (Abnova, Walnut, CA) and an IRDye800CW® secondary antibody (Rockland Immunochemicals, Inc., Gilbertsville, PA). Detection was performed using an Odyssey scanner (LiCor Biosciences) and blots quantified using ImageJ software (available at http://rsbweb.nih.gov/ij).

Tg2576 mice [1] = tested on: Tg2576 mice; parameters: method as in PMID 10908610, PMID 12930788; conditions: diet of 375 ppm for 4–6 months; cited from earlier work
[2] = tested on: Aph1AL containing γ-secretase complexes; experiment: Cell-free AICD production from APP β-CTF (Western blot); format: biochemical, murine; conditions: 10 μM
Description: DAPT was used as a reference positive control for the assay. For each assay condition, a 5-μL microsomal fraction, containing 1% CHAPSO (3-[(3-cholamidopropyl)dimethylammonio]-2-hydroxy-1-propanesulfonate) from murine embryonic fibroblasts (MEF) lacking the Aph-1A, Aph-1B, and Aph-1C genes (triple knock out) and rescued with Aph-1AL, was prepared in a reaction mixture of 5 μL substrate (recombinant APP β-CTF 3-Flag-tagged) at 0.8 μM, 0.0125% phosphatidylethanolamine, 0.1%, phosphatidylcholine, 0.05% sphingomyelin, and 8.9 μL PIPES (piperazine-N,N′-bis[−ethanesulfonic acid]) buffer. […] For detection of AICD, one-half of the reaction mixture was purified by a methanol-chloroform extraction in order to remove lipids and hydrophobic proteins (e.g., APP β-CTF). This purified fraction was further analyzed by SDS-PAGE and Western blotting. AICD was detected with an ANTI-FLAG® antibody (Sigma-Aldrich). The other half of the reaction mixture was used to analyze the levels of Aβ1-40 and Aβ1-42 by AlphaLisa (Perkin Elmer, Waltham, MA).

Tg2576 mice [3] = tested on: Tg2576 mice; parameters: method as in PMID 16192379; conditions: 100 mg/kg p.o., 3 h before training; cited from earlier work
Aβ42 = tested on: Aβ42; parameters: method as in PMID 15304503; conditions: cited from earlier work

CC(C)[C@H](O)C(=O)N[C@@H](C)C(=O)N[C@@H]1C(=O)N(C)CCc2ccccc21 [Semegacestat]
toxicities in clinical trials in AD (AD patients): drug-related rashes, lightening of hair color, skin cancer, and more importantly, worsening of cognition and the ability to perform activities of daily living

C[C@H](NC(=O)[C@@H](O)c1cc(F)cc(F)c1)C(=O)N[C@@H]1C(=O)N(C)c2ccccc2-c2ccccc21 [LY-411,575, reference compound]
Full length APP (γ-secretase; 1 nM to 10 μM): not altered
accumulation of APP α- or β-CTFs (γ-secretase; concentration as low as 1 nM): led to their accumulation
EphA4 CTF accumulation (γ-secretase (EphA4)): led to EphA4 CTF accumulation

CC(C)Cc1ccc(C(C)C(=O)O)cc1 (centres unmarked) [ibuprofen]
amyloid plaque load and inflammatory mediators (Tg2576 mice [1]): marked decrease

C[C@H](NC(=O)Cc1cc(F)cc(F)c1)C(=O)N[C@H](C(=O)OC(C)(C)C)c1ccccc1 [DAPT, N-(N-(3,5-difluorophenacetyl)-L-alanyl)-S-phenylglycine t-butyl ester, reference compound]
production of AICD from APP β-CTF [2]: almost completely abolished
CFC cognitive deficit (Tg2576 mice [3]): rapidly improved the CFC cognitive deficit

C[C@@H](C(=O)O)c1ccc(-c2ccccc2)c(F)c1 [Flurizan™]
IC50 (Aβ42): > 300 µM
